Test results from US7932262B2 (Novartis AG, priority 2006, dated 2011).

Experiments:
[1] = tested on: PC3MM cells; experiment: Cell Proliferation Assay (Cell Titer Glo), PC3MM; type: cell-based; conditions: cell proliferation, PC3MM cells; read-out: CPEC50 PC3MM
Procedure, shortened: (§1)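 Following a 3-day compound exposure (37° C., 5% CO2) of A2780 or PC3MM cells plated at 1000 per well, viability was measured by Cell Titer Glo luminescence in fresh medium, read 10 min after reagent addition.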

[2] = tested on: A2780 cells; experiment: Cell Proliferation Assay (Cell Titer Glo), A2780; type: cell-based; conditions: Homo sapiens; cell proliferation, A2780 cells; read-out: CPEC50 A2780
Procedure, shortened: as §1

[3] = target: T1, PDK1 kinase (Homo sapiens, UniProt O15530); experiment: PDK1 Kinase Alpha Screen Assay; type: biochemical; conditions: PDK1 Kinase Alpha Screen Assay; read-out: PDK1 IC50
T1 sequence (O15530 1-556): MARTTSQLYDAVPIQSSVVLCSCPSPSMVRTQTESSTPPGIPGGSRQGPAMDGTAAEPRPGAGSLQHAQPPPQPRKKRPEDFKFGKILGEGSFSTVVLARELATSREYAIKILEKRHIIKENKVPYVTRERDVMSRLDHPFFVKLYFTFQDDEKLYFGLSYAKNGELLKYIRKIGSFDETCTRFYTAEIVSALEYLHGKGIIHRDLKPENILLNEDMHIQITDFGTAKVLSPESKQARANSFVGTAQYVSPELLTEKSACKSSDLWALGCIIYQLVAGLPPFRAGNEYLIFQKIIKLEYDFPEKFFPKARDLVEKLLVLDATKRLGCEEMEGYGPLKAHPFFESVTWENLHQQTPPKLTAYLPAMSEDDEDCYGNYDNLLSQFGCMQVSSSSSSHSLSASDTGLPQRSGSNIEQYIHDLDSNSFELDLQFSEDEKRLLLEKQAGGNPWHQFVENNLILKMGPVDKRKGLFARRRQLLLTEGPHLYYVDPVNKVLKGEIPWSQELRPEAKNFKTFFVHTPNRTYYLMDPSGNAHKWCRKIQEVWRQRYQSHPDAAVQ
Procedure, shortened: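 Detection used AlphaScreen: streptavidin donor and protein A acceptor beads (25 μg/ml each) bridged by a phospho-(Ser/Thr) PKA substrate antibody binding phosphorylated peptide. Reaction: biotin-PDK1-4 peptide (50 nM), ATP (10 uM), PDK1 in pH 7.5 Tris/MgCl2/DTT buffer, 3-18 hours, EDTA-stopped.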

Row | SMILES | EC50 [1] [µM] | EC50 [2] [µM] | IC50 [3] [µM]
1 | CC(C)CN1CC(Oc2cccc3cnc(Nc4ccc(S(N)(=O)=O)cc4)nc23)C1 [Compound 835, 4-(8-(1-isobutylazetidin-3-yloxy)quinazolin-2-ylamino)benzenesulfonamide] | < 5 | < 5 | < 5
2 | Cc1ccc(Cl)cc1NC(=O)c1ccc2cnc(Nc3ccc(S(N)(=O)=O)cc3)nc2c1 [Compound 838, N-(5-chloro-2-metlhylphenyl)-2-(4-sulfamoylphenylamino)quinazoline-7-carboxamide] | < 5 | < 5 | < 5
3 | Cc1csc(NC(=O)c2ccc3cnc(Nc4ccc(S(N)(=O)=O)cc4)nc3c2)c1C(N)=O [Compound 839, N-(3-carbamoyl-4-methylthiophen-2-yl)-2-(4-sulfamoylphenylamino)quinazoline-7-carboxamide] | < 5 | < 5 | < 5
4 | NS(=O)(=O)c1ccc(Nc2ncc3ccc(-c4ccc5c(c4)CCNC5=O)cc3n2)cc1 [Compound 840, 4-(7-(1-oxo-1,2,3,4-tetrahydroisoquinolin-6-yl)quinazolin-2-ylamino)benzenesulfonamide] | < 5 | 5 to 10 | < 5
5 | CCN1CC(Oc2cccc3cnc(Nc4ccc(S(N)(=O)=O)cc4)nc23)C1 [Compound 841, 4-(8-(1-ethylazetidin-3-yloxy)quinazolin-2-ylamino)benzenesulfonamide] | < 5 | < 5 | < 5
6 | Cc1ccc(C(N)=O)c(NC(=O)c2ccc3cnc(Nc4ccc(S(N)(=O)=O)cc4)nc3c2)c1 [Compound 842, N-(2-carbamoyl-5-methylphenyl)-2-(4-sulfamoylphenylamino)quinazoline-7-carboxamide] | < 5 | 5 to 10 | < 5
7 | NS(=O)(=O)c1ccc(Nc2ncc3ccc(Br)c(OC4CCNCC4)c3n2)cc1 [Compound 845, 4-(7-bromo-8-(piperidin-4-yloxy)quinazolin-2-ylamino)benzenesulfonamide] | < 5 | < 5 | < 5
8 | Cc1nn(C)c(C)c1-c1ccc2cnc(Nc3ccc(S(N)(=O)=O)cc3)nc2c1 [Compound 848, 4-(7-(1,3,5-trimethyl-1H-pyrazol-4-yl)quinazolin-2-ylamino)benzenesulfonamide] | < 5 | < 5 | < 5

More lines, now with the values ahead:

Row | EC50 [1] [µM] | EC50 [2] [µM] | IC50 [3] [µM] | SMILES
9 | < 5 | < 5 | < 5 | NS(=O)(=O)c1ccc(Nc2ncc3cccc(-c4ccc(N5CCCC5)nc4)c3n2)cc1 [Compound 832, 4-(8-(6-(pyrrolidin-1-yl)pyridin-3-yl)quinazolin-2-ylamino)benzenesulfonamide]
10 | < 5 | 5 to 10 | < 5 | NS(=O)(=O)c1ccc(Nc2ncc3cccc(-c4cc[nH]c(=O)c4)c3n2)cc1 [Compound 833, 4-(8-(2-oxo-1,2-dihydropyridin-4-yl)quinazolin-2-ylamino)benzenesulfonamide]
11 | < 5 | < 5 | < 5 | NS(=O)(=O)c1ccc(Nc2ncc3cccc(-c4ccc(N5CCS(=O)(=O)CC5)nc4)c3n2)cc1 [Compound 834]
12 | < 5 | < 5 | < 5 | NS(=O)(=O)c1ccc(Nc2ncc3ccc(-c4ccc(F)nc4F)cc3n2)cc1 [Compound 836, 4-(7-(2,6-difluoropyridin-3-yl)quinazolin-2-ylamino)benzenesulfonamide]
13 | < 5 | < 5 | < 5 | NS(=O)(=O)c1ccc(Nc2ncc3ccc(-c4ccc(F)nc4)cc3n2)cc1 [Compound 837, 4-(7-(6-fluoropyridin-3-yl)quinazolin-2-ylamino)benzenesulfonamide]
14 | < 5 | 5 to 10 | < 5 | NS(=O)(=O)c1ccc(Nc2ncc3ccc(-c4cnc(=O)[nH]c4)cc3n2)cc1 [Compound 844, 4-(7-(2-oxo-1,2-dihydropyrimidin-5-yl)quinazolin-2-ylamino)benzenesulfonamide]
